{"source": "ChEMBL document CHEMBL1201862", "about": "“PubChem BioAssay data set” (2004)", "key": {"Protein skinhead-1": {"target": "T1, Protein skinhead-1 (Caenorhabditis elegans, UniProt P34707)", "T1 sequence (P34707 whole entry)": "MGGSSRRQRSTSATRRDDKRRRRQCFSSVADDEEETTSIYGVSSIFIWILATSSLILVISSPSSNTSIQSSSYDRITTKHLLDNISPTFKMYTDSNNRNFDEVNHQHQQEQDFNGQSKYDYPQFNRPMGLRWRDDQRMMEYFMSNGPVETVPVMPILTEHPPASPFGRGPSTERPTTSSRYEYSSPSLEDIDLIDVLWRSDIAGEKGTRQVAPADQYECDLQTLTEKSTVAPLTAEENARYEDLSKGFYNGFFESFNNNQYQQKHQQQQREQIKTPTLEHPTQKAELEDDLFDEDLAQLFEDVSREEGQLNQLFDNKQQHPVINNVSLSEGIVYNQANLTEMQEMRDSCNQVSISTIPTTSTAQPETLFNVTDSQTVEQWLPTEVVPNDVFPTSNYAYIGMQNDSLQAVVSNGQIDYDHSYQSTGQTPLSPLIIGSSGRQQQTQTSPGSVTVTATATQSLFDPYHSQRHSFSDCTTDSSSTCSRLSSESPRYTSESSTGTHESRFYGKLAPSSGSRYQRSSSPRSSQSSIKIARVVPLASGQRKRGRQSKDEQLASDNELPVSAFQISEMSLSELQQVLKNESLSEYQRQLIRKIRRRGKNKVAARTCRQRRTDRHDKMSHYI", "format": "functional"}, "[1]": {"target": "T2, Sentrin-specific protease 8 (Homo sapiens, UniProt Q96LD8)", "T2 sequence (Q96LD8 whole entry)": "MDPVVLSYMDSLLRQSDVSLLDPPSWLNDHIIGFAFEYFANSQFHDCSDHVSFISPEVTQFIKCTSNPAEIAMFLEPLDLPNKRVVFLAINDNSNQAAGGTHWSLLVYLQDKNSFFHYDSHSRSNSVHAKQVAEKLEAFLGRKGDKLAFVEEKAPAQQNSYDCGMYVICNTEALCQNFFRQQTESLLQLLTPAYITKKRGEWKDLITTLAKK", "format": "functional"}}, "note": "The source made the active and inactive calls.", "data": [{"smiles": "O=C(O)c1ccc2c(c1)[C@@H]1C=CC[C@@H]1[C@H](c1ccccn1)N2", "values": [{"measurement": "IC50", "setting": "Protein skinhead-1", "result": "> 100 µM (inactive)"}]}, {"smiles": "CN(C)c1cc(N/N=C\\c2ccccc2)nc(N(C)C)n1", "values": [{"measurement": "IC50", "setting": "[1]", "result": "0.368 µM (active)"}]}]}
